In the NIST ThermoML archive (doi:10.1016/j.fluid.2018.11.035):

Assay: wn = mass fraction of the nth substance listed
Settings: 101 kPa, Liquid, Vibrating tube method, w1 = 0.365

OCCO [1,2-ethanediol] + O
Settings	mass density [kg/m3]
283.15 K	1059.35
293.15 K	1054.78
303.15 K	1049.78
313.15 K	1044.38
323.15 K	1038.57
333.15 K	1032.23
